Measurements from patent publication US12036226B2, “Methods of treating subjects having diabetes with chronic kidney disease” (Poxel SA, priority 2018, dated 2024).
Like-named read-outs stand apart in the source and are kept apart here.

Assays:
[1] = system: Japanese type 2 diabetic subjects; assay: Phase 2b dose-ranging placebo-controlled 24-week study in Japanese type 2 diabetic subjects; type: in vivo, human
Protocol: A Dose-Ranging, Randomized, Double-Blind, Placebo-Controlled, Parallel-Group, Multi-Center Study of the Efficacy and Safety of 3 Doses of Imeglimin after 24 Weeks of Treatment in Japanese Type 2 Diabetic Subjects
In this study, a total of 299 subjects with T2DM received either imeglimin at one of the 3 doses (500, 1000 and 1500 mg bid) or placebo. The primary objective of this study was to assess the dose-response of imeglimin at 3 doses (500, 1000 and 1500 mg bid) compared to placebo in male and female subjects with T2DM after 24 weeks of treatment, using glycosylated hemoglobin (HbA1c) as the primary endpoint. Inclusion Criteria: subjects have an eGFR of ≥50 mL/min/1.73 m^2 at screening and >=45 at pre randomization visit. A total of 299 subjects were randomized 1:1:1:1 to one of the 4 study arms, with 268 subjects completing the study.
Percentage of responders was defined as the percentage of subjects who reached a value of HbA1c≤7% at the end of the 24-week double-blind treatment period. The analysis was performed using the FAS for subjects with an HbA1c value greater than 7.0% at baseline.
In a post-hoc analysis, efficacy and safety/tolerability profile was investigated in patients depending on their renal function (CKD 1=eGFR≥90 mL/min/1.73 m^2, CKD2=60≤eGFR<90 mL/min/1.73 m^2, CKD3A=45≤eGFR<60 mL/min/1.73 m^2). 299 patients were randomized 74% of the patients had CKD2, 14% had CKD1, and 12% CKD3A, respectively. The primary endpoint was met with a statistically significant dose-dependent placebo subtracted decrease in HbA1c at the 3 doses with the 2 top doses of 1,000 and 1,500 mg bid reaching an HbA1c decrease of −0.94% and −1.00% respectively (Table 5). […] There were no major differences in the incidence of AE, SAE or AE leading to treatment discontinuation.

[2] = system: acute renal failure (ARF) rat model; settings: for plasma glucose: normal rats
Protocol: The creatinine level, correlated with the degree of the renal function failure, was tested for each rat 7 days after the first injection of gentamicin. […] The creatinine level was determined on the Monarch Chemistry Systems using the IL Test creatinine in rat plasma samples. This monochromatic analysis is based on the formation of a red colored complex between creatinine and picric acid under alkaline conditions.

[3] = Daily steady-state exposure (AUC24,ss) in a Phase 2b clinical study; type: in vivo; settings: human, plasma, oral, 1500 mg, 1500 mg BID treatment arm
Protocol: In addition, predicted daily steady-state exposures (AUC24,ss) for doses of 500 mg BID, 1500 mg QD, and 1000 mg BID in T2DM subjects with CKD stage 3B or 4 in a Phase 1b study were estimated using parameters from the population PK model; the mean AUC24,ss values and standard deviations are shown in FIG. 10. For reference, the mean AUC24,ss and standard deviation from a Phase 2b clinical study is also included in FIG. 10; the mean AUC24,ss in the 1500 mg BID treatment arm in that study was 36.5 μg·hr/mL (the AUC24,ss range was 10.1 to 169.3 μg·hr/mL). At each of the three dose levels, significant overlap in exposure between T2DM subjects with CKD3B and T2DM subjects with CKD4 was predicted as evidenced by the overlap of standard deviation bars between CKD3B and CKD4 subjects at each dose level.

[4] = system: subjects with T2DMs; assay: Earlier studies in subjects with T2DM for up to 24 weeks (monotherapy, add on to metformin and sitagliptin); type: in vivo, human
[5] = CKD Stage 3a (eGFR < 60 mL/min/1.73 m^2), 1500 mg BID
[6] = CKD Stage 3a (eGFR < 60 mL/min/1.73 m^2), 1500 mg BID, N 8
[7] = Normal eGFR (eGFR > 90 mL/min/1.73 m^2), 500 mg BID
[8] = Normal eGFR (eGFR > 90 mL/min/1.73 m^2), 500 mg BID, N 9
[9] = Normal eGFR (eGFR > 90 mL/min/1.73 m^2), 1000 mg BID
[10] = Normal eGFR (eGFR > 90 mL/min/1.73 m^2), 1000 mg BID, N 9
[11] = Normal eGFR (eGFR > 90 mL/min/1.73 m^2), 1500 mg BID
[12] = Normal eGFR (eGFR > 90 mL/min/1.73 m^2), 1500 mg BID, N 14

In the case of C[C@H]1N=C(N(C)C)N=C(N)N1 [imeglimin, (6R)—N^2, N^2,6-trimethyl-3,6-dihydro-1,3,5-triazine-2,4-diamine], the “Change in HbA1c from baseline, Week 24 LS Mean (SEM)” value (shortened to “Change in HbA1c … (SEM)”) ([1]; CKD Stage 3a (eGFR < 60 mL/min/1.73 m^2), 1000 mg BID, N 7) is reported as −0.22 (0.282) %, the “HbA1c LSM Difference vs. Placebo (SEM), Week 24” value ([1]; CKD Stage 3a (eGFR < 60 mL/min/1.73 m^2), 1000 mg BID, listed as Imeglimin) is reported as −0.44 (0.368) % and the “FPG LSM Difference vs. Placebo, Week 24” value [1, 5] is reported as -20.6 mg/dL. The “HbA1c LSM Difference vs. Placebo (SEM), Week 24” value [1, 5] was −1.07%, the “Change in FPG from baseline, Week 24 LS Mean” value (shortened to “Change in FPG from baseline”) [1, 6] was -12.2 mg/dL and the “Change in HbA1c … (SEM)” value [1, 6] was −0.86 (0.265) %. For the same molecule, the “HbA1c LSM Difference vs. Placebo (SEM), Week 24” value ([1]; CKD Stage 3a (eGFR < 60 mL/min/1.73 m^2), 1500 mg BID, listed as Imeglimin) was −1.07 (0.353) %, the “incidence of subjects presenting with Treatment Emergent (TE) AE” value ([1]; Imeglimin 1000 mg) was 62.2% and the “incidence of subjects presenting with any adverse event (AE)” value ([1]; Imeglimin 1000 mg) was 73%. For the same molecule, the “incidence of subjects presenting with Treatment Emergent (TE) AE” value ([1]; Imeglimin 1500 mg) was 73.3%, the “incidence of subjects presenting with any adverse event (AE)” value ([1]; Imeglimin 1500 mg) was 77.3% and the “FPG LSM Difference vs. Placebo, Week 24” value [1, 7] was 14.5 mg/dL. The “HbA1c LSM Difference vs. Placebo (SEM), Week 24” value [1, 7] was −0.01 (0.290) %, the “Change in FPG from baseline” value [1, 8] was 15.9 mg/dL and the “Change in HbA1c … (SEM)” value [1, 8] was 0.04 (0.221) %. For the same molecule, the “FPG LSM Difference vs. Placebo, Week 24” value [1, 9] was -28.1 mg/dL, the “HbA1c LSM Difference vs. Placebo (SEM), Week 24” value [1, 9] was −0.85 (0.283) % and the “Change in FPG from baseline” value [1, 10] was -26.6 mg/dL. The “Change in HbA1c … (SEM)” value [1, 10] was −0.8 (0.213) %, the “FPG LSM Difference vs. Placebo, Week 24” value [1, 11] was 5.1 mg/dL and the “HbA1c LSM Difference vs. Placebo (SEM), Week 24” value [1, 11] was −0.47 (0.260) %. For the same molecule, the “Change in FPG from baseline” value [1, 12] was 6.6 mg/dL, the “Change in HbA1c … (SEM)” value [1, 12] was −0.42 (0.175) % and the “incidence of TEAE considered as related to the study drug” value (“incidence of TEAE considered as related” for short) ([1]; imeglimin 500 mg (placebo 8%)) was 5.3%. The “incidence of TEAE from the gastrointestinal disorder SOC” value ([1]; imeglimin 500 mg (placebo 14.7%)) was 14.7%, the “serious TEAEs” value ([1]; imeglimin 500 mg bid) was “none” and the “incidence of TEAE considered as related” value ([1]; imeglimin 1000 mg (placebo 8%)) was 5.4%. The “incidence of TEAE from the gastrointestinal disorder SOC” value ([1]; imeglimin 1000 mg (placebo 14.7%)) was 18.9%, the “serious TEAEs” value ([1]; imeglimin 1000 mg bid) was 5.4% and the “incidence of TEAE considered as related” value ([1]; imeglimin 1500 mg (placebo 8%)) was 24%. The “incidence of TEAE from the gastrointestinal disorder SOC” value ([1]; imeglimin 1500 mg (placebo 14.7%)) was 32%, the “serious TEAEs” value ([1]; imeglimin 1500 mg bid) was 1.3% and the plasma glucose ([2]; 180 minutes, imeglimin and metformin 100 mg/h/kg, phenformin 50 mg/h/kg i.v.) was 5.4 ± 0.4 mmol/L. For the same molecule, the plasma glucose ([2]; i.v. perfusion 100 mg/h/kg, 60 minutes (basal 7.6±0.4)) was 6.5 ± 0.4 mmol/L, the “effect on plasma [HCO3−]” value ([2]; rat, in vivo) was “significantly decreased plasma [HCO3^−]vs. basal period but not vs. control group” and the “effect on plasma lactate” value ([2]; rat, in vivo) was “did not significantly increase plasma lactate”. For the same molecule, the “effect on plasma lactate level” value ([2]; rat, in vivo) was “did not change plasma lactate level”, the “plasma H+ concentration / metabolic acidosis signs” value ([2]; rat, in vivo) was “Metabolic acidosis signs with imeglimin treatment were not observed” and the plasma accumulation ([2]; rat, in vivo) was “plasma accumulation of metformin and imeglimin was observed”. The severe hypoglycemia ([2]; rat, in vivo) was “severe hypoglycemia was not observed”, the “decrease in plasma glucose” value ([2]; rats with mild or high ARF) was “significant and time-dependent” and the AUC ([3]; read-out: AUC24,ss range) was 10100 to 169000 ng·h/mL. For the same molecule, the AUC ([3]; read-out: mean AUC24,ss) was 36500 ng·h/mL and the “tolerability / safety profile” value [4] was “well-tolerated with a safety profile comparable to that of placebo”.
